Laboratory results: patent US11034725B2, “Compositions and methods for treating cardiovascular disease” (Genentech, Inc., priority 2016, dated 2021)
Read-outs that look alike come from different tables or passages of the source. Numbered stars: 1 amine (or outer) side, 2 acyl side, 3 side chain; on linkers, the order of the positions; unused ones are H or OH. Bridge positions count the residues as written; N and C are the ends. Square brackets hold non-standard residues; d marks the D form. Peptide text beside a SMILES is read from it. NH(CH2)8CO = O=C(CCCCCCCCN[*:1])[*:2]; Aoc = NCCCCCCCC(=O)O

What was measured:
PCSK9 = PCSK9 (Homo sapiens, UniProt Q8NBP7); experiment: PCSK9/EGF(A) TR-FRET binding assay; settings: TR-FRET, read-out: PCSK9/EGF(A) IC50
Sequence of PCSK9 (Q8NBP7 153-692): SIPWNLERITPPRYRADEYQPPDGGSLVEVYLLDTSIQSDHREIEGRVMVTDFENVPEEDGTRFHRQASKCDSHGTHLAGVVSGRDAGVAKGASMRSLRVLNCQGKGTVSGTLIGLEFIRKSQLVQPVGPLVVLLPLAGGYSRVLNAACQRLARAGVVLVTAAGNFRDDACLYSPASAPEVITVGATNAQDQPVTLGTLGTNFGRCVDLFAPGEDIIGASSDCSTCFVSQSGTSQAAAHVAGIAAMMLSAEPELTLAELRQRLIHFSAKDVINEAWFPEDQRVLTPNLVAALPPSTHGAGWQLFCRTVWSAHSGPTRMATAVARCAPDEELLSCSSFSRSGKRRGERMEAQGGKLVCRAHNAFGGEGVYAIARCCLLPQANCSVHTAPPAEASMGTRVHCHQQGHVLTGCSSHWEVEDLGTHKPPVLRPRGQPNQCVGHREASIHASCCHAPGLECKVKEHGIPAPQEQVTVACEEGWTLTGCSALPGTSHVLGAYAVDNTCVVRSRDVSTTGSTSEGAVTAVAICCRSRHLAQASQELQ
Sequence of PCSK9 (Q8NBP7 31-152 partner limits assumed): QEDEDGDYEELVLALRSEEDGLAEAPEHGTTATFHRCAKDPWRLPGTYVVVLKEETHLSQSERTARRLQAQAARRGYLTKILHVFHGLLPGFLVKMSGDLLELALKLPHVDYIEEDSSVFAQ
Description: The former was based on a TF-FRET assay to measure the association of the EGF(A) domain of the LDLR to PCSK9 (“PCSK9/EGF(A) binding assay”) whilst the latter was based on a TR-FRET assay to measure binding of Ab20 to PCSK9Δhelix (“PCSK9Δhelix/Ab20 binding assay”).
The ability of compounds to inhibit binding to PCSK9 was evaluated with a panel of time-resolved fluorescence resonance energy transfer (TR-FRET) binding assays. […] The PCSK9Δhelix/Ab20 binding assay evaluated the ability of compounds to compete with Ab20 for binding to the N-terminal groove region in a His-tagged, PCSK9Δhelix construct. […] Signal generation in the PCSK9 binding assays was dependent upon the binding interaction to bring into close proximity the His-tag on the PCSK9 and the Fc-tag on the ligand. Anti-His-APC was bound to the His-tag, and anti-Fc-europium was bound to the Fc-tag. When these two antibodies were in close proximity and were irradiated with light at 340 nm, the europium was excited and emitted energy at 615 nm. This energy was taken up by the APC and was emitted as light at 665 nm. Compounds that competed with the ligand reduced the energy transfer and thus the emission at 665 nm. In the His-EGFA-Fc molecule in the counterscreen, the two tags were always in close proximity, thus any reduction in emission at 665 nm was due to interference with the detection system.
Compounds were solubilized and dilutions were prepared in DMSO. […] The plate was centrifuged to mix the well contents and allowed to incubate for 30 min. […] The TR-FRET signal was read on a ViewLux reader (PerkinElmer) with excitation at 340 nm and emission at 615 and 665 nm with a 50-μs time delay between excitation and measurement of emission. The TR-FRET ratio was calculated as the fluorescence emission at 665 nm divided by the fluorescence emission at 615 nm. The normalized TR-FRET ratios were plotted as a function of the compound concentrations, and the IC50 values were determined using a 4-parameter logistic regression.
In black 1536-well assay plates (MaKO, Aurora® Microplates, Whitefish, Mont.), 40 nL of peptide in DMSO were preincubated with 2 μL His-tagged PCSK9 plus anti-His-allophycocyanin in assay buffer (50 mM Tris-HCl, pH 7.5, 150 mM NaCl, 2 mM CaCl2, 0.01% Tween®-20, 0.1% bovine gamma globulins, and protease inhibitor cocktail) for 30 min. Then 2 μL of Fc-tagged ligand and anti-Fc-europium in assay buffer were added and allowed to incubate for 2 h.

PCSK9Δhelix = target: T1, PCSK9Δhelix (Homo sapiens, UniProt Q8NBP7); experiment: PCSK9Δhelix/Ab20 TR-FRET binding assay; settings: for IC50: TR-FRET, Table 8D, disulfide-cyclized extension peptides, read-out: PCSK9Δhelix/Ab20 IC50
T1 construct: Human PCSK9 construct M1-Q692 with an engineered TEV site (residue deletion Y166, R167); made in house; host or cells: CHO
T1 sequence (Q8NBP7 with tags, fused parts or gaps limits assumed): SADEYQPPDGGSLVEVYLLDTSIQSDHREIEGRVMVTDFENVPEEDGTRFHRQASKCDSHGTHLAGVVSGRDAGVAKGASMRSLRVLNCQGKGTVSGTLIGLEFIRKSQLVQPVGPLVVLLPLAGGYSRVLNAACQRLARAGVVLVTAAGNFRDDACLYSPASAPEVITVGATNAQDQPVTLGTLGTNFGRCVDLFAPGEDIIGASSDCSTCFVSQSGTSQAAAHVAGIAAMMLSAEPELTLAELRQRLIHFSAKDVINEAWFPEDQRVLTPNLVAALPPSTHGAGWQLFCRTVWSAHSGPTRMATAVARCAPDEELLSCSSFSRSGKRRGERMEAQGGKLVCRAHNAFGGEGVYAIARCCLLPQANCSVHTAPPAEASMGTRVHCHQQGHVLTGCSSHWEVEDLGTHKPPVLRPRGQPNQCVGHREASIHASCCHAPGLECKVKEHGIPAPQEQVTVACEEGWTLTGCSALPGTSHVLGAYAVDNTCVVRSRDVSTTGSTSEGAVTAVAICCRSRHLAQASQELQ
T1 sequence (Q8NBP7 31-152 partner limits assumed): as the sequence (Q8NBP7 31-152 partner limits assumed) above

His-EGF(A)-Fc = His-EGF(A)-Fc TR-FRET counterscreen; settings: TR-FRET counterscreen; Table 8D; * = some inhibition at highest concentrations, not sufficient to fit an IC50
[1] = Table 8D, disulfide-cyclized extension peptides

| SMILES | IC50 (PCSK9; [1]) [µM] | inhibition in the PCSK9Δhelix/Ab20 binding assay (PCSK9Δhelix) | IC50 (PCSK9Δhelix) [µM] | IC50 (His-EGF(A)-Fc) [µM] | IC50 (PCSK9; Example 7) [µM] |
| --- | --- | --- | --- | --- | --- |
| CC(=O)N[C@H]1CSSC[C@@H](C(N)=O)NC(=O)CCCCCCCCNC(=O)[C@H](CCCNC(=N)N)NC(=O)[C@H](CCC(N)=O)NC(=O)[C@H](CC(C)C)NC(=O)[C@H](CC(N)=O)NC(=O)[C@H](Cc2c[nH]c3ccccc23)NC(=O)[C@@H]2CCCN2C(=O)[C@H](CC(C)C)NC(=O)[C@H](CCCNC(=N)N)NC1=O [Compound 85] (Ac-CRLPWNLQR[NH(CH2)8CO]C-NH2; disulfide 1-11) | > 50 | removes inhibition | > 50 | > 50 |  |
| CC(=O)N[C@H]1CSSC[C@@H](C(N)=O)NC(=O)CCCCCCCNC(=O)[C@H](CCCNC(=N)N)NC(=O)[C@H](CCC(N)=O)NC(=O)[C@H](CC(C)C)NC(=O)[C@H](CC(N)=O)NC(=O)[C@H](Cc2c[nH]c3ccccc23)NC(=O)[C@@H]2CCCN2C(=O)[C@H](CC(C)C)NC(=O)[C@H](CCCNC(=N)N)NC1=O [Compound 86] (Ac-CRLPWNLQR[Aoc]C-NH2; disulfide 1-11) | > 50 | removes inhibition | > 50 | > 50 |  |
| CC[C@H](C)[C@@H]1NC(=O)[C@H](CCCNC(=N)N)NC(=O)[C@H](CCCCN)NC(=O)[C@H](CC(C)C)NC(=O)[C@H](CC(N)=O)NC(=O)[C@H](Cc2c[nH]c3ccccc23)NC(=O)[C@H](CC(C)C)NC(=O)[C@@H](NC(=O)CNC(C)=O)CSSC[C@@H](C(=O)N[C@@H](Cc2c[nH]c3ccccc23)C(=O)N[C@@H](Cc2ccccc2)C(N)=O)NC(=O)[C@H](CCC(N)=O)NC(=O)[C@H](CO)NC(=O)CNC1=O [Compound 87] (Ac-GCLWNLKRIGSQCWF-NH2; disulfide 2-13 (inferred)) | > 50 |  | 9.53 | > 50 |  |
| CC[C@H](C)[C@@H]1NC(=O)[C@H](CCCNC(=N)N)NC(=O)[C@H](C)NC(=O)[C@H](CC(C)C)NC(=O)[C@H](CC(N)=O)NC(=O)[C@H](Cc2c[nH]c3ccccc23)NC(=O)[C@H](CC(C)C)NC(=O)[C@@H](NC(=O)[C@H](Cc2ccccc2)NC(C)=O)CSSC[C@@H](C(=O)N[C@@H](Cc2c[nH]c3ccccc23)C(=O)N[C@@H](Cc2ccccc2)C(N)=O)NC(=O)[C@H](CCC(N)=O)NC(=O)[C@H](CO)NC(=O)CNC1=O [Compound 88] (Ac-FCLWNLARIGSQCWF-NH2; disulfide 2-13) |  |  | 7.46 | > 50 | 17.9 |
| CC[C@H](C)[C@@H]1NC(=O)[C@H](CCCNC(=N)N)NC(=O)[C@H](CCCCN)NC(=O)[C@H](CC(C)C)NC(=O)[C@H](CC(N)=O)NC(=O)[C@H](Cc2c[nH]c3ccccc23)NC(=O)[C@H](CC(C)C)NC(=O)[C@@H](NC(=O)[C@@H](N)Cc2c[nH]c3ccccc23)CSSC[C@@H](C(=O)N[C@@H](Cc2c[nH]c3ccccc23)C(=O)N[C@@H](Cc2ccccc2)C(N)=O)NC(=O)[C@H](CCC(N)=O)NC(=O)[C@H](CO)NC(=O)CNC1=O [Compound 89] (H-WCLWNLKRIGSQCWF-NH2; disulfide 2-13) | 6.9 |  | 2.98 | 38.4 |  |
| CC[C@H](C)[C@@H]1NC(=O)[C@H](CCCNC(=N)N)NC(=O)[C@H](CCCCN)NC(=O)[C@H](CC(C)C)NC(=O)[C@H](CC(N)=O)NC(=O)[C@H](Cc2c[nH]c3ccccc23)NC(=O)[C@H](CC(C)C)NC(=O)[C@@H](NC(=O)[C@H](Cc2ccccc2)NC(C)=O)CSSC[C@@H](C(=O)N[C@@H](CCC(=O)O)C(=O)N[C@@H](Cc2ccc(O)cc2)C(N)=O)NC(=O)[C@H](CCC(N)=O)NC(=O)[C@H](CO)NC(=O)CNC1=O [Compound 95] (Ac-FCLWNLKRIGSQCEY-NH2; disulfide 2-13) | > 50 |  | 12.7 | > 50 |  |
| CC[C@H](C)[C@@H]1NC(=O)[C@H](CCCNC(=N)N)NC(=O)[C@H](CCC(N)=O)NC(=O)[C@H](CC(C)C)NC(=O)[C@H](CC(N)=O)NC(=O)[C@H](Cc2c[nH]c3ccccc23)NC(=O)[C@@H]2CCCN2C(=O)[C@H](CC(C)C)NC(=O)[C@H](CCCNC(=N)N)NC(=O)[C@@H](NC(C)=O)CSSC[C@@H](C(N)=O)NC(=O)[C@H]2CCCN2C(=O)[C@H](CC(C)C)NC(=O)CNC1=O [Compound 99] (Ac-CRLPWNLQRIGL[dP]C-NH2; disulfide 1-14) | > 50 |  | 1.3 | > 50 |  |
| CC[C@H](C)[C@@H]1NC(=O)[C@H](CCCNC(=N)N)NC(=O)[C@H](CCC(N)=O)NC(=O)[C@H](CC(C)C)NC(=O)[C@H](CC(N)=O)NC(=O)[C@H](Cc2c[nH]c3ccccc23)NC(=O)[C@@H]2CCCN2C(=O)[C@H](CC(C)C)NC(=O)[C@H](CCCNC(=N)N)NC(=O)[C@@H](NC(C)=O)CSSC[C@@H](C(N)=O)NC(=O)[C@@H]2CCCN2C(=O)[C@@H](CC(C)C)NC(=O)CNC1=O [Compound 100] (Ac-CRLPWNLQRIG[dL]PC-NH2; disulfide 1-14) | > 50 |  | > 50 | > 50 |  |
| CC[C@@H](C)[C@H]1NC(=O)[C@H](CCCNC(=N)N)NC(=O)[C@H](CCC(N)=O)NC(=O)[C@H](CC(C)C)NC(=O)[C@H](CC(N)=O)NC(=O)[C@H](Cc2c[nH]c3ccccc23)NC(=O)[C@@H]2CCCN2C(=O)[C@H](CC(C)C)NC(=O)[C@H](CCCNC(=N)N)NC(=O)[C@@H](NC(C)=O)CSSC[C@@H](C(N)=O)NC(=O)[C@@H]2CCCN2C(=O)[C@H](CC(C)C)NC(=O)CNC1=O [Compound 101] (Ac-CRLPWNLQR[dI]GLPC-NH2; disulfide 1-14) | > 50 |  | > 50 | > 50 |  |
| CC[C@H](C)[C@@H]1NC(=O)[C@@H](CCCNC(=N)N)NC(=O)[C@H](CCC(N)=O)NC(=O)[C@H](CC(C)C)NC(=O)[C@H](CC(N)=O)NC(=O)[C@H](Cc2c[nH]c3ccccc23)NC(=O)[C@@H]2CCCN2C(=O)[C@H](CC(C)C)NC(=O)[C@H](CCCNC(=N)N)NC(=O)[C@@H](NC(C)=O)CSSC[C@@H](C(N)=O)NC(=O)[C@@H]2CCCN2C(=O)[C@H](CC(C)C)NC(=O)CNC1=O [Compound 102] (Ac-CRLPWNLQ[dR]IGLPC-NH2; disulfide 1-14) | > 50 |  | > 50 | > 50 |  |
| CC[C@H](C)[C@@H]1NC(=O)[C@H](CCCNC(=N)N)NC(=O)[C@@H](CCC(N)=O)NC(=O)[C@H](CC(C)C)NC(=O)[C@H](CC(N)=O)NC(=O)[C@H](Cc2c[nH]c3ccccc23)NC(=O)[C@@H]2CCCN2C(=O)[C@H](CC(C)C)NC(=O)[C@H](CCCNC(=N)N)NC(=O)[C@@H](NC(C)=O)CSSC[C@@H](C(N)=O)NC(=O)[C@@H]2CCCN2C(=O)[C@H](CC(C)C)NC(=O)CNC1=O [Compound 103, Ac-CRLPWNLqRIGLPC-NH2] (Ac-CRLPWNL[dQ]RIGLPC-NH2; disulfide 1-14) | > 50 |  | > 50 | > 50 |  |
| CC[C@H](C)[C@@H]1NC(=O)[C@H](CCCNC(=N)N)NC(=O)[C@H](CCC(N)=O)NC(=O)[C@@H](CC(C)C)NC(=O)[C@H](CC(N)=O)NC(=O)[C@H](Cc2c[nH]c3ccccc23)NC(=O)[C@@H]2CCCN2C(=O)[C@H](CC(C)C)NC(=O)[C@H](CCCNC(=N)N)NC(=O)[C@@H](NC(C)=O)CSSC[C@@H](C(N)=O)NC(=O)[C@@H]2CCCN2C(=O)[C@H](CC(C)C)NC(=O)CNC1=O [Compound 104, Ac-CRLPWNlQRIGLPC-NH2] (Ac-CRLPWN[dL]QRIGLPC-NH2; disulfide 1-14) | > 50 |  | > 50 | > 50 |  |
| CC[C@H](C)[C@@H]1NC(=O)[C@H](CCCNC(=N)N)NC(=O)[C@H](CCC(N)=O)NC(=O)[C@H](CC(C)C)NC(=O)[C@@H](CC(N)=O)NC(=O)[C@H](Cc2c[nH]c3ccccc23)NC(=O)[C@@H]2CCCN2C(=O)[C@H](CC(C)C)NC(=O)[C@H](CCCNC(=N)N)NC(=O)[C@@H](NC(C)=O)CSSC[C@@H](C(N)=O)NC(=O)[C@@H]2CCCN2C(=O)[C@H](CC(C)C)NC(=O)CNC1=O [Compound 105] (Ac-CRLPW[dN]LQRIGLPC-NH2; disulfide 1-14) | > 50 |  | > 50 | > 50 |  |
| CC[C@H](C)[C@@H]1NC(=O)[C@H](CCCNC(=N)N)NC(=O)[C@H](CCC(N)=O)NC(=O)[C@H](CC(C)C)NC(=O)[C@H](CC(N)=O)NC(=O)[C@@H](Cc2c[nH]c3ccccc23)NC(=O)[C@@H]2CCCN2C(=O)[C@H](CC(C)C)NC(=O)[C@H](CCCNC(=N)N)NC(=O)[C@@H](NC(C)=O)CSSC[C@@H](C(N)=O)NC(=O)[C@@H]2CCCN2C(=O)[C@H](CC(C)C)NC(=O)CNC1=O [Compound 106] (Ac-CRLP[dW]NLQRIGLPC-NH2; disulfide 1-14) | > 50 |  | > 50 | > 50 |  |
| CC[C@H](C)[C@@H]1NC(=O)[C@H](CCCNC(=N)N)NC(=O)[C@H](CCC(N)=O)NC(=O)[C@H](CC(C)C)NC(=O)[C@H](CC(N)=O)NC(=O)[C@H](Cc2c[nH]c3ccccc23)NC(=O)[C@H]2CCCN2C(=O)[C@H](CC(C)C)NC(=O)[C@H](CCCNC(=N)N)NC(=O)[C@@H](NC(C)=O)CSSC[C@@H](C(N)=O)NC(=O)[C@@H]2CCCN2C(=O)[C@H](CC(C)C)NC(=O)CNC1=O [Compound 107] (Ac-CRL[dP]WNLQRIGLPC-NH2; disulfide 1-14) | > 50 |  | > 50 | > 50 |  |
| CC[C@H](C)[C@@H]1NC(=O)[C@H](CCCNC(=N)N)NC(=O)[C@H](CCC(N)=O)NC(=O)[C@H](CC(C)C)NC(=O)[C@H](CC(N)=O)NC(=O)[C@H](Cc2c[nH]c3ccccc23)NC(=O)[C@@H]2CCCN2C(=O)[C@@H](CC(C)C)NC(=O)[C@H](CCCNC(=N)N)NC(=O)[C@@H](NC(C)=O)CSSC[C@@H](C(N)=O)NC(=O)[C@@H]2CCCN2C(=O)[C@H](CC(C)C)NC(=O)CNC1=O [Compound 108] (Ac-CR[dL]PWNLQRIGLPC-NH2; disulfide 1-14) | > 50 |  | 28.2 | > 50 |  |
